Laboratory results taken from the supplement of paper PMC10307832.

How the values were obtained:
Experiment in all cases: relative viability (nuclei count vs DMSO), 5 days (fraction); higher = more cells survive
[1] = compound: CC[C@@H](C)CNCC(=O)N1CCC2=C([C@@H]1COC3=CC=CC(=C3)C)C=CS2 [RU-SKI 43] + CS(=O)(=O)CCNCc1ccc(-c2ccc3ncnc(Nc4ccc(OCc5cccc(F)c5)c(Cl)c4)c3c2)o1 [Lapatinib] (partner 2 µM)
Outline: (§1)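 Values are medians from duplicate plates. Each reflects relative viability, defined as the nuclei count of treated wells over that of vehicle wells. Lung cancer cell lines in 1536-well plates were pin-tool dosed one day after seeding with one drug alone or with a fixed anchor-drug dose plus five library-drug doses (not always all listed) in √10 steps, then fixed, stained and imaged at 4× after 5 days.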

[2] = compound: CC[C@@H](C)CNCC(=O)N1CCC2=C([C@@H]1COC3=CC=CC(=C3)C)C=CS2 [RU-SKI 43] + CC1(C)CCC(c2ccc(Cl)cc2)=C(CN2CCN(c3ccc(C(=O)NS(=O)(=O)c4ccc(N[C@H](CCN5CCOCC5)CSc5ccccc5)c(S(=O)(=O)C(F)(F)F)c4)cc3)CC2)C1 [Navitoclax] (partner 0.5 µM)
Outline: as §1

[3] = compound: CCc1c2c(nc3ccc(OC(=O)N4CCC(N5CCCCC5)CC4)cc13)-c1cc3c(c(=O)n1C2)COC(=O)[C@]3(O)CC [Irinotecan] + O=C(CCCCCCC(=O)Nc1ccccc1)NO [Vorinostat] (partner 1 µM)
Outline: as §1

[4] = compound: Cn1cc(-c2cnc3ccc4ccc(CS(=O)(=O)NCc5ccccn5)cc4c(=O)c3c2)cn1 [MK-8033] + Cc1nc(Nc2ncc(C(=O)Nc3c(C)cccc3Cl)s2)cc(N2CCN(CCO)CC2)n1 [Dasatinib] (partner 0.075 µM)
Outline: as §1

Cell Line	relative viability ([1]; first compound 0.1 µM)	relative viability ([1]; first compound 0.3162 µM)	relative viability ([1]; first compound 1 µM)	relative viability ([1]; first compound 3.162 µM)	relative viability ([1]; first compound 10 µM)	relative viability ([2]; first compound 0.1 µM)	relative viability ([2]; first compound 0.3162 µM)	relative viability ([2]; first compound 1 µM)	relative viability ([2]; first compound 3.162 µM)	relative viability ([2]; first compound 10 µM)	relative viability ([3]; first compound 0.6325 µM)	relative viability ([3]; first compound 2 µM)	relative viability ([3]; first compound 6.325 µM)	relative viability ([3]; first compound 20 µM)	relative viability ([4]; first compound 0.02 µM)	relative viability ([4]; first compound 0.06325 µM)	relative viability ([4]; first compound 0.2 µM)	relative viability ([4]; first compound 0.6325 µM)	relative viability ([4]; first compound 2 µM)
LXF-289	0.906	0.88	0.979	0.989	0.878	0.982	0.973	1.03	0.992	0.91	0.724	0.688	0.41	0.195	0.197	0.213	0.208	0.189	0.215
NCI-H23	0.834	1.22	1.37	1.12	0.916	0.615	0.9	0.99	0.998	0.687	0.467	0.451	0.234	0.199	0.844	0.827	0.64	0.928	0.587
NCI-H322M	0.586	0.635	0.671	0.635	0.604	1.15	1.4	1.23	1.39	1.15	0.734	0.886	0.732	0.32	0.283	0.243	0.238	0.263	0.261
NCI-H460	0.993	1.33	1.55	1.25	1.01	1.15	1.23	1.34	1.44	1.11	0.193	0.218	0.0779	0.0695	0.481	0.409	0.48	0.501	0.484
NCI-H520	0.897	0.986	0.996	0.951	0.756	1.08	1.42	1.28	1.08	1.03	0.442	0.394	0.278	0.162	0.193	0.187	0.211	0.221	0.168
NCI-H596	1.09	1.06	0.997	1.19	1.14	0.896	0.833	0.994	1.06	1.01	0.587	0.639	0.728	0.737	0.55	0.535	0.586	0.626	0.455
NCI-H647	1.24	1.22	1.16	1.25	1.26	1.12	1.29	1.26	1.23	1.15	0.679	0.398	0.139	0.0969	0.164	0.164	0.188	0.197	0.173
NCI-H727	0.797	0.905	0.84	0.839	0.927	0.305	0.355	0.397	0.35	0.358	1.03	0.731	0.616	0.641	0.363		0.464	0.435	0.322
NCI-H838	0.905	0.945	1.12	1.17	1.01	1.17	1.31	1.27	1.22	1.1	0.776	0.703	0.378	0.301	0.258	0.281	0.259	0.279	0.247
NCI-H1355	0.961	1.13	0.897	0.995	0.984	0.936	0.996	0.921	0.979	0.997		0.578	0.36	0.26	0.647	0.655	0.645	0.698	0.763
NCI-H1395	1.15	1.04	1.24	1.13	1.24	1.15	1.15	1.32	1.14	1.02		0.714	0.522	0.268	0.391	0.368	0.406	0.378	0.403
NCI-H1437	0.904	1.08	0.907	1.06	0.746	1.08	1.33	1.13	1.09	0.998	0.537	0.54	0.407	0.28	0.493	0.419	0.402	0.361	0.419
NCI-H1650	0.696	0.81	0.885	0.858	0.637	1.17	1.38	1.41	1.06	0.813	0.518	0.349	0.351	0.162	0.27	0.254	0.275	0.325	0.272
NCI-H1651	0.846	0.964	0.98	0.974	0.764	1.05	1.24	1.14	1.01	1.01	0.362	0.533	0.364	0.158	0.412	0.331	0.285	0.433	0.388
NCI-H1666	0.58	0.721	0.695	0.615	0.52	0.9	1.08	0.888	0.852	0.848	0.849	0.706	0.788	0.631	0.907	0.769	0.73	0.872	0.827
NCI-H1734	1.08	1.08	1.1	1.08	0.998	0.867	1.49	0.911	0.899	0.803		0.522	0.195	0.175	0.441	0.469	0.429	0.411	0.395
NCI-H1755	1.03	1.4	1.08	0.995	1.01	1.04	1.14	1.06	1.06	1.05	0.606	0.7	0.448	0.385	0.41	0.382	0.415	0.421	0.443

Cell Line	relative viability ([1]; first compound 0.1 µM)	relative viability ([1]; first compound 0.3162 µM)	relative viability ([1]; first compound 1 µM)	relative viability ([1]; first compound 3.162 µM)	relative viability ([1]; first compound 10 µM)	relative viability ([2]; first compound 0.1 µM)	relative viability ([2]; first compound 0.3162 µM)	relative viability ([2]; first compound 1 µM)	relative viability ([2]; first compound 3.162 µM)	relative viability ([2]; first compound 10 µM)	relative viability ([3]; first compound 0.6325 µM)	relative viability ([3]; first compound 2 µM)	relative viability ([3]; first compound 6.325 µM)	relative viability ([3]; first compound 20 µM)	relative viability ([4]; first compound 0.02 µM)	relative viability ([4]; first compound 0.06325 µM)	relative viability ([4]; first compound 0.2 µM)	relative viability ([4]; first compound 0.6325 µM)	relative viability ([4]; first compound 2 µM)
NCI-H1793	0.69	0.644	0.594	0.673	0.697	0.458	0.417	0.425	0.511	0.318		0.633	0.372	0.244	0.425	0.388	0.394	0.365	0.338
NCI-H1915	1.02	1.22	1.13	1.03	0.993	0.776	0.83	0.8	0.821	0.78	0.307	0.329	0.168	0.147	0.298	0.273	0.309	0.309	0.303
NCI-H1944	0.825	0.793	0.864	0.86	0.817	1.02	1.05	1.12	1.02	0.938	0.386	0.36	0.223	0.166	0.205	0.201	0.221	0.202	0.234
NCI-H1975	0.968	1.32	0.867	0.853	1.02	1.06	1.45	1.07	1.07	1.07	0.714	0.708	0.378	0.269	0.329	0.344	0.357		0.343
NCI-H1993	0.739	0.859	0.717	0.822	1.8	0.932	0.91	0.982	1.05	1.02		0.529	0.584	0.612	0.482	0.493	0.533	0.468	0.502
NCI-H2009	0.899	0.837	0.901	0.964	0.905	1.11	1.21	1.17	1.15	1.1	0.589	0.379	0.236	0.135	0.299	0.329	0.308	0.232	0.279
NCI-H2023	0.773	0.808	1.05	0.849	0.726	1.01	1.3	1.08	1.09	0.977	0.365	0.451	0.204	0.0592	0.603	0.437	0.421	0.342	0.288
NCI-H2085	0.672	0.719	0.836	0.674	0.686	1.17	1.11	1.2	1.08	1.12	0.753	0.756	0.583	0.564	0.209	0.246	0.247	0.265	0.225
NCI-H2087	0.916	1.12	0.947	1.09	0.804	1.05	0.94	0.943	0.911	0.998	0.235	0.215	0.165	0.16	0.95	0.852	0.754	0.763	0.772
NCI-H2126	0.797	0.63	0.823	0.779	0.766	0.776	0.863	0.875	0.875	0.862	0.4	0.616	0.335	0.292	0.601	0.556	0.597	0.601	0.573
NCI-H2170	0.259	0.241	0.292	0.273	0.256	0.499	0.64	0.643	0.625	0.58	0.864	0.753	0.327	0.102	0.681	0.553	0.604	0.581	0.481
NCI-H2228	1.05	1.3	1.45	1.29	0.891	0.91	1.3	0.995	1.25	0.987	0.567	0.592	0.435	0.433	0.586	0.517	0.471	0.446	0.482
NCI-H2347	0.951	0.829	1.08	1.04	0.726	0.718	0.836	0.904	0.424	0.7	0.435	0.631	0.514	0.548	0.288	0.317	0.314	0.362	0.354
NCI-H2405	1.01	0.964	1.03	1.04	0.956	0.797	0.867	0.627	0.74	0.711		0.956	0.307	0.195	0.185	0.202	0.228	0.213	0.21
NCI-H3122	1.06	1.03	1.03	1.09	0.979	1.03	1	0.995	0.97	0.98	0.924	0.447	0.199	0.146	0.734	0.655	0.586	0.814	0.876
PC-3 [JPC-3]	0.461	0.344	0.454	0.47	0.459	0.74	0.748	0.783	0.792	0.779	0.625	0.914	0.411	0.419	0.935	0.939	0.948	1.02	0.966
